Results as given in US8748600B2, “Cyclic triazo sodium channel blockers” (University of Greenwich, priority 2009, dated 2014).

Experiments:
sodium channel (Nach) = test: Inhibition of binding of [3H]BTX-B to rat forebrain homogenates; settings: extrapolated IC50; [3H]BTX-B binding
Protocol: Experiments were performed using forebrain (whole brain less cerebellum/medulla) from Male Wistar rats weighing 175-250 g. All efforts were made to reduce the number of animals used and all experiments were carried out in accordance with the UK Animals (Scientific Procedures) Act, 1986 and the European Community Council Directive of 24 Nov. 1986 (86/609/EEC). Following killing of animals by stunning and decapitation, the forebrain (whole brain less cerebellum/medulla) was rapidly dissected and transferred to a weighed tube containing ice-cold 0.25M sucrose.
Homogenates were prepared by transferring the known weight of forebrain to a cooled tube containing 9 volumes of ice-cold 50 mM pH 7.4 HEPES buffer. The mixture was homogenised @ 4° by 3×5 sec bursts of an Ultra-Turrax™ homogeniser set at maximum speed. The resulting homogenate was centrifuged at 40,000×g (average) at 4° for 15 min and the supernatant discarded. The resulting pellet was resuspended in 9 volumes of fresh ice-cold pH 7.4 buffer (as above), the centrifugation step was repeated and the resulting pellet resuspended in the [^3H]BTX-B binding buffer at a concentration of 20-25 mg wet weight per ml assay buffer.
Both assays were carried out using 14 ml polypropylene test tubes to which a range of concentrations of the compounds under test were added.
[^3H]BTX-B binding was carried out using the method described by Catterall et al (1981), except that both bovine serum albumin and TTX were omitted from the incubation medium.
IC50 values were obtained from radioligand displacement or guanidine flux inhibition curves by plotting log10 concentration vs bound ligand/guanidine uptake according the equation:— y=Rmin+Rsp/{1+exp [−n(x−C)]}
and • C=IC50 (i.e. concentration required to inhibit 50% of specific binding Hippocampal Slice Assay

[1] = target: T1, DiHydroFolate Reductase (DHFR) (Rattus norvegicus, UniProt Q920D2); test: Inhibition of binding of [3H]methotrexate to rat liver homogenate supernatant (DHFR); settings: read-out: DHFR (% inhibition @ 125 μm)
T1 construct: from tissue; host or cells: rat liver homogenate, 47,500 x g supernatant
T1 sequence (Q920D2 1-187): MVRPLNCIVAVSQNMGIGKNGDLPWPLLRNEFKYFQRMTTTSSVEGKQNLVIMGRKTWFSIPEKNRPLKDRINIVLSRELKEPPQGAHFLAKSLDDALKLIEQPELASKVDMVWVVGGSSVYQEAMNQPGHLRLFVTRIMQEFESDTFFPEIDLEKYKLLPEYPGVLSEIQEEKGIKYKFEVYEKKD
Protocol: All steps were carried out at 4° (or on ice). Freshly dissected rat liver was dissected into 0.25M ice-cold Sucrose and subsequently homogenised (U-turrax) in 50 mM pH 6.0 phosphate buffer (10 ml/g tissue) containing 15 mM Dithiothreitol. The resulting homogenate was centrifuged @ 47,500×g for 20 min and supernatant (filtered through cotton wool to remove fatty lumps) stored @-80° before use (Rothenberg et al).
Inhibition of the binding of [^3H]methotrexate to rat liver homogenate supernatant fractions were carried out essentially as described by Arons et al, 1975.

Row | SMILES | IC50 (sodium channel (Nach)) [µM] | inhibition at […] [1] [%]
1 | Nc1nnc(C2(c3ccccc3)CCCCC2)c(N)n1 [CEN-230] | 23 | 0
2 | COc1ccc(C2(c3nnc(N)nc3N)CCCCC2)cc1 [CEN-231] | 1 | –
3 | Nc1nnc(C2(c3ccccc3)CCCC2)c(N)n1 [CEN-232] | 5 | 100
4 | COc1ccc(C2(c3nnc(N)nc3N)CCCC2)cc1 [CEN-234] | 3 | 22
5 | Nc1nnc(C2(c3ccc(Cl)cc3Cl)CC2)c(N)n1 [CEN-235] | 8 | 63
6 | Nc1nnc(C2(c3cccc(F)c3)CCCC2)c(N)n1 [CEN-236] | 4 | 14
7 | Cc1ccc(C2(c3nnc(N)nc3N)CCCC2)cc1 [CEN-237] | < 0.5 | 70
8 | Nc1nnc(C2CC2c2ccccc2)c(N)n1 (stereo not drawn) [CEN-238] | > 190 | –
9 | Cc1ccc(C2(c3nnc(N)nc3N)CCCCC2)cc1 [CEN-239] | < 0.5 | 73
10 | Nc1nnc(C2(c3ccccc3)CC2)c(N)n1 [CEN-240] | – | 8
11 | Nc1nnc(C(Cc2ccccc2)c2ccccc2)c(N)n1 (stereo not drawn) [CEN-241] | – | 90
12 | COc1ccc(C2(c3nnc(N)nc3N)CC2)cc1 [CEN-244] | 115 | 0
13 | Nc1nnc(-c2cccc(OCc3cccc4ccccc34)c2)c(N)n1 [CEN-245] | 57 | 55
14 | Nc1nnc(C(c2ccc(F)cc2)c2ccc(F)cc2)c(N)n1 [CEN-247] | 9 | 0
